Experimental data reported in patent US20030044946A1 (priority 2001, published 2003).
Where two headings read alike, the source gives them in different places.

What was measured:
aconitase = aconitase inactivation after treatment of yeast cells; type: cell-based, Saccharomyces cerevisiae; settings: wild type cells; 1 μM antimycin A or 1 mM paraquat; data not shown
Method: Cells were inoculated at an OD600 of 0.1 in SDC medium and harvested at the indicated times. Whole cell extracts were obtained by glass bead lysis under argon in 50 mM Tris 7.2, 150 mM NaCl, 5 mM EDTA, and 0.2 mM PMSF with an equal volume of 0.5 mm acid washed glass beads, and vortexing for 6 cycles of 30 seconds followed by 2 minutes of cooling. After centrifugation, the supernatants were aliquoted, flash frozen, and stored at −70° C. Because of the instability of 4Fe4S clusters in air, the extraction procedures were performed as rapidly as possible, under an inert atmosphere (argon). Furthermore, aliquots kept at −70° C. were only thawed immediately before the assay. Aconitase activity was measured spectrophotometrically as described (S. Melov, et al., Science 289, 1567-9 (2000)). Briefly, the linear absorbance change at 240 nm (cis-aconitate disappearance) was followed in a reaction mixture containing 1 mM cis-aconitate, 0.5 M NaCl, and 0.1 M Tris 7.4. For iron-sulfur cluster reactivation experiments, 1 mM ferric sulfate and 1 mM sodium sulfide (Na2S) was added to the cuvette containing all the reagents required for the aconitase assay. Activity was measured as described above.

[1] = test system: wild type cells (strain DBY746)
ras2Δ (EG252) cells = settings: ras2 mutants; paraquat 1 mM, 7-day treatment

| Compound | effect on aconitase (aconitase) | effect on survival (viability) of wild type cells [1] | toxicity to wild type cells [1] | survival after paraquat treatment ([1]; Saccharomyces cerevisiae) [%] | initial viability retained after paraquat treatment (ras2Δ (EG252) cells) | toxicity to sod2Δ mutants (sod2Δ mutants; effect on life span) | toxicity to sod2Δ mutants (sod2Δ mutants) |
| --- | --- | --- | --- | --- | --- | --- | --- |
| C[n+]1ccc(-c2cc[n+](C)cc2)cc1 [paraquat] | reversibly inactivates aconitase | early viability loss | toxic | 5 | over 70% | particularly toxic | – |
| antimycin A | reversibly inactivates aconitase | early viability loss | toxic | – | – | – | particularly toxic |
